Values quoted from earlier work, collected in US20250092340A1, “METHOD FOR INDUSTRIALLY PRODUCING MOGROSIDE, FRUCTUS MOMORDICAE SUGAR/WINE AND MANNITOL FROM FRESH FRUCTUS MOMORDICAE” (priority 2022, published 2025).

Conditions: background statement

SMILES | sweetness relative to sucrose
C[C@H](CC[C@@H](O[C@@H]1O[C@H](CO)[C@@H](O)[C@H](O)[C@H]1O[C@@H]1O[C@H](CO)[C@@H](O)[C@H](O)[C@H]1O)C(C)(C)O)[C@H]1CC[C@@]2(C)[C@H]3CC=C4[C@@H](CC[C@H](O[C@@H]5O[C@H](CO[C@@H]6O[C@H](CO)[C@@H](O)[C@H](O)[C@H]6O)[C@@H](O)[C@H](O)[C@H]5O)C4(C)C)[C@]3(C)[C@H](O)C[C@]12C [mogroside IV] | 126 folds of that of sucrose
C[C@H](CC[C@@H](O[C@@H]1O[C@H](CO[C@@H]2O[C@H](CO)[C@@H](O)[C@H](O)[C@H]2O)[C@@H](O)[C@H](O)[C@H]1O[C@@H]1O[C@H](CO)[C@@H](O)[C@H](O)[C@H]1O)C(C)(C)O)[C@H]1CC[C@@]2(C)[C@@H]3CC=C4[C@@H](CC[C@H](O[C@@H]5O[C@H](CO[C@@H]6O[C@H](CO)[C@@H](O)[C@H](O)[C@H]6O)[C@@H](O)[C@H](O)[C@H]5O)C4(C)C)[C@]3(C)[C@H](O)C[C@]12C [mogroside V] | 256-344 folds of that of sucrose
